From PubChem BioAssay (NCI)
Several values for one entry are separate records, joined by “and”; a condition that tells them apart may be missing. Equal values may be shown once.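 Five compound concentrations were applied to cells in 96-well plates for 48 hours; endpoints were derived by simple linear interpolation of the resulting dose-response curve. Here, GI50 denotes the concentration required for 50% inhibition of growth. At the TGI there is no net growth.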

Columns and labels:
Assay in all cases: growth of human tumour cells (NCI), 48 h
SK-MEL-2 melanoma = test system: SK-MEL-2 melanoma
NCI-H522 lung = test system: NCI-H522 lung
OVCAR-5 ovarian = test system: OVCAR-5 ovarian
OVCAR-8 ovarian = test system: OVCAR-8 ovarian
SF-295 CNS = test system: SF-295 CNS
KM12 colon = test system: KM12 colon
BT-549 breast = test system: BT-549 breast
SK-OV-3 ovarian = test system: SK-OV-3 ovarian
EKVX NSCLC = test system: EKVX NSCLC
UACC-257 melanoma = test system: UACC-257 melanoma

Structure (SMILES)	GI50 (SK-MEL-2 melanoma)	TGI (SK-MEL-2 melanoma)	GI50 (NCI-H522 lung)	TGI (NCI-H522 lung) [µM]	GI50 (OVCAR-5 ovarian)	TGI (OVCAR-5 ovarian)	GI50 (OVCAR-8 ovarian)	TGI (OVCAR-8 ovarian)	GI50 (SF-295 CNS) [nM]	TGI (SF-295 CNS)	GI50 (KM12 colon)	TGI (KM12 colon) [µM]	GI50 (BT-549 breast)	TGI (BT-549 breast)	GI50 (SK-OV-3 ovarian)	TGI (SK-OV-3 ovarian)	GI50 (EKVX NSCLC) [nM]	TGI (EKVX NSCLC)	GI50 (UACC-257 melanoma)	TGI (UACC-257 melanoma)
Clc1ccc(C=Nc2ccc(-c3nc4ccccc4[nH]3)cc2)cc1	> 100000 nM	> 100 µM	> 100000 nM	> 100	> 100000 nM	> 100 µM	> 100000 nM	> 100 µM	> 100000	> 100 µM	> 100000 nM	> 100	> 100000 nM	> 100 µM	> 100000 nM	> 100 µM	> 100000	> 100 µM	> 100000 nM	> 100 µM
C=CCC(N[C@@H](CO)c1ccccc1)c1ccc2ccccc2n1 (stereo partly drawn)	> 100000 nM	> 100 µM	64600 nM	> 100	> 100000 nM	> 100 µM	> 100000 nM	> 100 µM	> 100000	> 100 µM	> 100000 nM	> 100	> 100000 nM	> 100 µM	> 100000 nM	> 100 µM	> 100000	> 100 µM	32400 nM	> 100 µM
CCN(CC)c1ccc(/C=N/NC(=O)Cc2ccc(Nc3ccnc(C(F)(F)F)c3)cc2)c(O)c1	4520 nM	> 100 µM	1270 nM	> 100	2420 nM	> 100 µM	757 nM	> 100 µM	713	> 60 µM	826 nM	> 100	965 nM	> 29.2 µM	359 nM	> 100 µM	980	> 77 µM	1820 nM	> 29.2 µM
Cc1cc(N2CCC(N3CCCC3)CC2)nc(/N=C(\N)Nc2ccc(Cl)c(Cl)c2)n1	2110 nM	3.85 µM	1520 nM	3.32	1770 nM	3.79 µM	1910 nM	3.77 µM	1840	3.55 µM	1720 nM	3.64	2440 nM	6.37 µM	1880 nM	3.49 µM	1710	4.4 µM	1920 nM	3.54 µM
O=c1c(I)c[nH]cc1I	> 100000 nM	> 100 µM	> 100000 nM	> 100	> 100000 nM	> 100 µM	> 100000 nM	> 100 µM	> 100000	> 100 µM	> 100000 nM	> 100	> 100000 nM	> 100 µM	> 100000 nM	> 100 µM	> 100000	> 100 µM	> 100000 nM	> 100 µM
Nc1ccc(CC[C@H]2CCC/C=C/[C@@H]3C[C@H](O)C[C@H]3[C@H](O)/C=C/C(=O)O2)cc1	38.1 nM	0.18 µM	81.6 nM	0.375	48.1 nM	> 78.1 µM	40.7 nM	> 100 µM	47.6	> 100 µM	23.5 nM	0.0615	38.1 nM	16.1 µM	48.3 nM	> 100 µM	37.4	2.49 µM	56.5 nM	37.1 µM
C=C1C(=O)OC2CC(C)C(/C=C/C(C)=O)=CCC12 (stereo not drawn)		> 100 µM		> 100		> 100 µM		> 100 µM		> 100 µM		> 100		> 100 µM		> 100 µM		> 100 µM		> 100 µM
O=C1/C(=C/c2ccc(Cl)cc2)CCC1CNc1ccc(Cl)cc1 (stereo not drawn)		58.5 µM		3.89		> 77.3 µM		19.2 µM		> 100 µM		11.7		65.3 µM		> 31.4 µM		38.4 µM		32.4 µM
Cc1cccc2c(=O)c3c(O)cc(O)cc3n(C)c12		> 100 µM		> 100		> 100 µM		> 100 µM		> 100 µM		> 100		> 100 µM		> 100 µM		> 100 µM		> 100 µM
CCOc1ccc2nc(NC(=O)C(=O)C3C(=O)C(CC4C(=O)c5ccccc5C4=O)C(=O)CC3(C)C)sc2c1 (stereo not drawn)		> 100 µM		> 100		> 100 µM		> 100 µM		> 100 µM		> 100		> 100 µM		> 100 µM		> 100 µM		> 100 µM
O=[N+]([O-])c1ccccc1N=Nc1c(O)[nH]c2c(Cl)cccc12		> 100 µM		26.1		> 100 µM		37.4 µM		31.6 µM		> 80.3		> 82.3 µM		54.7 µM		> 61.5 µM		> 42.5 µM
COC(=O)c1c(C)nc(C)c2c1C(=O)C(Br)=C(NCc1ccccc1)C2=O	2520 nM	6.63 µM	2250 nM	6.09	3110 nM	7.9 µM	2510 nM	7.24 µM	3040	10.4 µM	2930 nM	13.4	4090 nM	15.4 µM	6200 nM	19.2 µM	2120	5.35 µM	1620 nM	3.19 µM
O=c1ccc(N=Nc2ccccc2)ccc1O		47.5 µM		56.3		47.4 µM		43.9 µM		20.9 µM		24.9		56.6 µM		> 100 µM		81.1 µM		51.7 µM
O=C(O)CNc1ccc2c(c1)Cc1cc(Br)ccc1-2		> 79 µM		56.8		> 73.1 µM		> 100 µM		97 µM		50.7		58.6 µM		98.5 µM		49.7 µM		72.7 µM
COc1ccc2nc3ccccc3c(NCCNCCO)c2c1	448 nM	2.8 µM	380 nM	1.97	1180 nM	8.85 µM	528 nM	8.88 µM	484	2.62 µM	455 nM	3.37	1010 nM	4.29 µM	869 nM	7.67 µM	1430	7.32 µM	655 nM	2.34 µM
COc1cccc(/C=C2\N=C(c3ccccc3)OC2=O)c1		> 100 µM		42.5		> 100 µM		> 100 µM		> 100 µM		> 100		> 100 µM		> 100 µM		> 100 µM		> 100 µM
NNc1c(C(N)=O)c2c(N)ncnc2n1C1OC(CO)C(O)C1O (stereo not drawn)	27.3 nM and 25.6 nM	0.0946 µM and 0.307 µM	32.8 nM and 152 nM		57.8 nM and 309 nM	1.1 µM and 7.56 µM	17.8 nM and 34.3 nM	11.5 µM and 3.51 µM		9.44 µM and 2.91 µM	45.3 nM and 47.5 nM	12.4	35.5 nM and 40.7 nM	0.624 µM and 0.672 µM	< 13.7 nM and 27.3 nM	0.413 µM and 0.361 µM	208	0.841 µM and 4.36 µM	40.4 nM and 132 nM	0.254 µM and 1.37 µM
CC(C)(C)N/N=C(/Cc1nc2c3c(ccc2[nH]c1=O)C(=O)c1ccccc1C3=O)C(=O)NC1=C(Cl)C(=O)c2ccccc2C1=O		> 100 µM		> 100		> 100 µM		98.6 µM		> 100 µM		8.83		> 100 µM		> 100 µM		> 100 µM		> 100 µM
CC(C)(Oc1ccc(-c2cccc3ccccc23)cc1)C(=O)O		> 100 µM		> 100		> 100 µM		> 100 µM		> 100 µM		> 100		> 100 µM		> 100 µM		> 100 µM		> 100 µM
CC(C)=C[C@@H]1C[C@H](C)[C@H]2CC[C@H](C)c3c(O)c(OC4OC(C)C(O)C(O)C4O)c(C)c1c32 (stereo partly drawn)	19800 nM	35.5 µM	16100 nM	29.8	10500 nM	23.2 µM	14600 nM	28 µM	15900	30.9 µM	2630 nM	8.16	18900 nM	34.8 µM	18900 nM	32.9 µM	19300	34.2 µM	14200 nM	27.3 µM
CCn1c(-c2nonc2N)nc2ccccc21	> 25000 nM	> 25 µM	> 25000 nM	> 25	> 25000 nM	> 25 µM	> 25000 nM	> 25 µM	> 25000	> 25 µM	> 25000 nM	> 25	> 25000 nM	> 25 µM	> 25000 nM	> 25 µM	20900	> 25 µM	> 25000 nM	> 25 µM
